Measured values published in patent US20090227493A1, “COMBINED DRUG FOR TREATING DIABETES” (DAIICHI SANKYO COMPANY, LIMITED, priority 2005, published 2009).

Columns and labels:
[1] = tested on: diabetic obese rats (male ZDF rats); experiment: Test Example 2: effect of combined use of various GLP-1 receptor agonists and compound A, same manner as Test Example 1; settings: combined use with compound A
[2] = tested on: diabetic obese rats (male ZDF rats); experiment: Test Example 1: effect of combined use of GLP-1 (7-36) amide and compound A; format: in vivo, rat; settings: from start of treatment to 57 days; FIG. 1-C
Excerpt: In this test, commercially available diabetic obese rats (male ZDF rats, 8 weeks old at the start of administration, purchased from Charles River Laboratories Japan, Inc.) were used. ZDF rats used in this test were acclimatized to the feeding time from 9:30 to 16:30 from one week before the start of treatment.
Rats were divided into four groups: the control group, compound A treatment group (group A), GLP-1 (7-36) amide treatment group (group B), and compound A plus GLP-1 (7-36) amide treatment group (group C).
The control group and group B were allowed free access to a powder feed (FR-2: Funabashi Farms Co., Ltd.) from 9:30 to 16:30. […] The dose of compound A was calculated as 16.1 μg/kg/day based on the food intake during this period. […]
Glycosylated hemoglobin (HbA1c) levels were measured at 42 days after the start of treatment, and blood sugar levels in full feeding were measured at 47 days. […]
Furthermore, insulin in the pancreas was extracted by the hydrochloric acid-ethanol method (Diabetelogia, Vol. 27, pp. 454-459 [1984]), and the insulin concentration in the extract was determined by using a rat insulin RIA kit manufactured by Linco Research, Inc. to obtain the pancreatic insulin content. […]
Blood was collected from the caudal vein of the rats, and blood sugar levels were measured with Glucoroder GXT (A & T Corporation). HbA1c levels were measured with DC2000 (Bayer Medical Ltd.).

CCCCCCCCCCCCCCCC(=O)N[C@@H](CCC(=O)NCCCC[C@H](NC(=O)[C@H](C)NC(=O)[C@H](C)NC(=O)[C@H](CCC(N)=O)NC(=O)CNC(=O)[C@H](CCC(=O)O)NC(=O)[C@H](CC(C)C)NC(=O)[C@H](Cc1ccc(O)cc1)NC(=O)[C@H](CO)NC(=O)[C@H](CO)NC(=O)[C@@H](NC(=O)[C@H](CC(=O)O)NC(=O)[C@H](CO)NC(=O)[C@@H](NC(=O)[C@H](Cc1ccccc1)NC(=O)[C@@H](NC(=O)CNC(=O)[C@H](CCC(=O)O)NC(=O)[C@H](C)NC(=O)[C@@H](N)Cc1cnc[nH]1)[C@@H](C)O)[C@@H](C)O)C(C)C)C(=O)N[C@@H](CCC(=O)O)C(=O)N[C@@H](Cc1ccccc1)C(=O)N[C@H](C(=O)N[C@@H](C)C(=O)N[C@@H](Cc1c[nH]c2ccccc12)C(=O)N[C@@H](CC(C)C)C(=O)N[C@H](C(=O)N[C@@H](CCCNC(=N)N)C(=O)NCC(=O)N[C@@H](CCCNC(=N)N)C(=O)NCC(=O)O)C(C)C)[C@@H](C)CC)C(=O)O [Arg^34 Lys^26(N^6-(γ-L-glutamyl(N^α-palmitoyl))) GLP-1 (7-37)]
weight gain by compound A [1]: suppressing

COc1ccc2nc(COc3ccc(CC4SC(=O)NC4=O)cc3)n(C)c2c1 (centres unmarked) [compound A, 5-[4-(6-Methoxy-1-methyl-1H-benzimidazol-2-ylmethoxy)benzyl]thiazolidine-2,4-dione]
increases in body weight (weight gain) [2]: weight gain

exendin 3
decrease in HbA1c levels [1]: synergistic effect | pancreatic insulin content [1]: marked increase | weight gain by compound A [1]: suppressing
